This note sets out measurements from patent EP4775570A1, “CYP11A1 INHIBITOR, PREPARATION METHOD THEREFOR AND USE THEREOF” (Shenzhen Zhongge Biological Technology Co., Ltd., priority 2023, dated 2025).

pIC50: −log10 of the molar value.

The target of one data set is T1, CYP11A1 (Homo sapiens, UniProt P05108).
T1 construct: host or cells: NCI-H295R
T1 sequence (P05108 40-521): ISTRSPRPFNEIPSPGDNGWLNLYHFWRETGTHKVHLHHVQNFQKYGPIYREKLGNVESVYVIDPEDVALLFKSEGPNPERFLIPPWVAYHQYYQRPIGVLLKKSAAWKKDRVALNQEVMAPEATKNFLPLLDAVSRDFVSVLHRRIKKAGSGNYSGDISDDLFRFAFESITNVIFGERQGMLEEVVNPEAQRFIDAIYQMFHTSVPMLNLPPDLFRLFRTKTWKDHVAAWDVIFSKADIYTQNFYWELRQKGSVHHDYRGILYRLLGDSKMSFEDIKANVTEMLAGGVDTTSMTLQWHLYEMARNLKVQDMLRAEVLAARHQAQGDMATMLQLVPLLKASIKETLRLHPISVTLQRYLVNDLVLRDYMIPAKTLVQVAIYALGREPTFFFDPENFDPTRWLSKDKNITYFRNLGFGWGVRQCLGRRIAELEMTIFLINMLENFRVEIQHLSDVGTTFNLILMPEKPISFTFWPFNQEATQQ
The data set is described as follows: NCI-H295R cellular pregnenolone biosynthesis inhibition assay (ELISA method). Format: cell-based. Conditions: NCI-H295R cells, 3 days incubation, pregnenolone in cell supernatant by ELISA; read-out: IC50. The method, then: The experiment aims to test the inhibitory effect of the compounds of the present disclosure on cellular pregnenolone biosynthesis, and to assess the inhibitory effect of the compounds on CYP11A1 target based on their IC50 values.
NCI-H295R cells (MINGZHOUBIO, MZ-2138) cultured in NCI-H295R complete medium (MINGZHOUBIO, MCM-0399).
Using culture medium, NCI-H295R cells were seeded into a new 384-well cell culture plate (Greiner, 781091) at a density of 5,000 cells per well, with 45µL of cell suspension per well. The test compounds were prepared by adding 5µL of compound solution at 10× concentration to each well, to a maximum final concentration of 10µM, followed by 3× serial dilution for 10 points, with a final DMSO concentration of 0.1%, centrifuging at 1,000 rpm for 1 minute at room temperature, and then incubating in a 5% CO2 cell incubator at 37°C for 3 days.
Pregnenolone ELISA kit (Abnova, KA1912) was used for detecting the content of pregnenolone in the supernatant of cell culture. Before detection, the reagents were allowed to come back to room temperature for 1 hour. After taking out the 384-well plate, the cellular supernatant was pipetted and subjected to 5× dilution with the Assay Buffer provided in the kit. A working solution of competitive molecule and a washing solution in accordance with the instructions was prepared. 50µL of diluted cellular supernatant were pipetted into the 96-well plate provided in the ELISA kit, added with 100µL of working solution of competitive molecule per well and the plate was incubated at room temperature for 1.5 hours. After discarding the liquid, the plate was washed with 300µL of washing solution per well three times and dried. After adding 150 µL of substrate chromogenic solution per well, the plate was incubated at room temperature for 10-15 minutes. After adding 50 µL of termination solution per well, the plate was incubated at room temperature for 10-15 minutes and read for absorbance at 450nm with Envision HTS Multilabel Reader.
The wells added with 1µM ODM-208 were defined as 100% inhibition (positive control), the wells containing DMSO at a final concentration of 0.1% were defined as 0% inhibition (negative control), and inhibitory ratio = (absorbance of tested sample - average absorbance of negative control)/(average absorbance of positive control - average absorbance of negative control)*100%. The data were subjected to four-parameter fitting using GraphPad Prism to calculate the IC50 values of the compounds.
Background: ELISA stands for enzyme-linked immunosorbent assay.

Data set [1] in a line: PK study, intravenous and oral administration, plasma LC-MS/MS. Format: in vivo. Conditions: both sexes, 5 mg/kg, oral administration of 5 mpk, species not given (ICR mice or SD Rat). The method, then: ICR mice (male/female, total 6 animals) were assigned to two groups for oral administration and intravenous administration, respectively, with 3 mice in each group. Before administration, the animals were fasted for 10-14 hours, with water available ad lib.
SD Rat (male/female, total 6 animals) were assigned to two groups for oral administration and intravenous administration, respectively, with 3 mice in each group. Before administration, the animals were fasted for 10-14 hours, with water available ad lib.
The compounds to be tested were weighed out in accordance with intended dosage, formulated with vehicles (5% DMSO + 10% Solutol + 85% physiological saline) to dosage form at appropriate concentrations (administered intravenously and orally in rats or mice at a volume of 5 mL/kg and 10 mL/kg, respectively). The dosage form for intravenous injection is a clear solution, and the dosage form for oral administration is a clear solution or homogenous suspension.
Administration to animals was conducted through intravenous injection and oral gavage, and blood samples were collected at 0.033, 0.083, 0.25, 0.5, 1, 2, 4, 8, and 24 hours after intravenous injection, or at 0.083, 0.25, 0.5, 1, 2, 4, 6, 8, and 24 hours after oral administration. After centrifugation of whole blood samples at 4°C and 6,800g for 6 minutes, the upper layers of plasma were stored at -80°C refrigerator before analysis.
The DMSO stock solutions of the substance to be tested were diluted with methanol or acetonitrile solution to serial working solutions and added to blank plasma matrix to formulate samples for standard curve and quality control. An appropriate volume of plasma sample was added with appropriate fold of methanol or acetonitrile containing internal standards, according to response, for protein precipitation. After centrifugation of all samples at 4°C and 18,000g for 10 min, appropriate volumes of supernatant were taken for LC-MS/MS analysis.
Plasma drug concentration-time curves were plotted in accordance with tested concentrations, and pharmacokinetic parameters were calculated based on non-compartmental model using WinNonlin software, including half-life (T1/2), area under the drug concentration-time curve (AUC0-t), clearance rate (CL), steady-state distribution volume (Vss), bioavailability (F), etc.

In the case of `Cn1c(CN2Cc3ccccc3C2)c(F)cc(C=CC2CCN(S(=O)(=O)C3CC3)CC2)c1=O` [compound 111], the pIC50 – broadly, −log10 of the IC50, conventionally taken in molar units – on CYP11A1 is more than 7.00.
In the case of `CC(c1c(F)cc(CCC2CCN(S(C)(=O)=O)CC2)c(=O)n1C)N1Cc2ccccc2C1` (stereo not drawn) [compound 102], the pIC50 on CYP11A1 was more than 7.00.
On the same count and under the same terms, the same measure for `CS(=O)(=O)N1CCC(CSc2ccc(CN3Cc4ccccc4C3)cc2F)CC1` [compound 43]: 6.52 to 7.00; for `CCOc1cc(CN2Cc3ccccc3C2)ccc1CCC1CCN(S(C)(=O)=O)CC1` [compound 73]: 6.52 to 7.00; for `[2H]C([2H])(c1c(F)cc(CCC2CCN(S(C)(=O)=O)CC2)c(=O)n1C)N1Cc2ccccc2C1` [compound 116]: more than 7.00.
Still for that read-out and setting: the same measure for `CCC(C)Oc1cc(CN2Cc3ccccc3C2)c(F)cc1OCC1CCN(S(C)(=O)=O)CC1` (stereo not drawn) [compound 12]: more than 7.00; for `CC(C)(C)OC(=O)N1CCC(COc2cc(F)c(CN3Cc4ccccc4C3)cc2Br)CC1` [compound 46]: more than 7.00.
Take `CS(=O)(=O)N1CCC(COc2ccc(CN3Cc4ccccc4C3)cc2Cl)CC1` [compound 16]: at CYP11A1, the pIC50 is more than 7.00.
With `CSc1cc(CN2Cc3ccccc3C2)c(F)cc1OCC1CCN(S(C)(=O)=O)CC1` [compound 33], the pIC50 on CYP11A1 is more than 7.00.
On to `CS(=O)(=O)N1CCC(COc2ccc(CN3Cc4ccccc4C3)cc2-c2ncco2)CC1` [compound 37], for which the pIC50 at CYP11A1 was 6.52 to 7.00.
In the case of `COc1c(CCC2CCN(S(C)(=O)=O)CC2)ccc(CN2Cc3ccccc3C2)c1F` [compound 85], the pIC50 on CYP11A1 was more than 7.00.
Take `COc1nc(CN2Cc3ccccc3C2)ccc1OCC1CCN(S(C)(=O)=O)CC1` [compound 4]: the pIC50 on CYP11A1 was 6.52 to 7.00.
Still for that read-out and setting: then `CS(=O)(=O)N1CCC(COc2ccc(CN3Cc4ccccc4C3)cc2-c2ccco2)CC1` [compound 36], with less than 6.52; and `Cn1c(CN2Cc3ccccc3C2)c(F)cc(C(F)CC2CCN(S(C)(=O)=O)CC2)c1=O` (stereo not drawn) [compound 124], with more than 7.00; and `[2H]C([2H])([2H])n1c(CN2Cc3ccccc3C2)c(F)cc(CCC2CCN(S(C)(=O)=O)CC2)c1=O` [compound 106], with more than 7.00.
Still for that read-out and setting: then `CNC(=O)N1CCC(CCc2ccc(CN3Cc4ccccc4C3)cc2OC)CC1` [compound 79], with more than 7.00; and `CCn1c(CN2Cc3ccccc3C2)c(F)cc(CCC2CCN(S(C)(=O)=O)CC2)c1=O` [compound 107], with more than 7.00; and `CS(=O)(=O)N1CCC(COc2cc(F)c(CN3Cc4ccccc4C3)cc2O)CC1` [compound 52], with more than 7.00.
Regarding `CS(=O)(=O)N1CCC(C=Cc2ccc(CN3Cc4ccccc4C3)cc2C#N)CC1` [compound 60], the pIC50 at CYP11A1 was more than 7.00.
The same measure, in the same setting: the same measure for `CS(=O)(=O)N1CCC(CCc2cc(F)c(CN3Cc4ccccc4C3)[nH]c2=O)CC1` [compound 94]: 6.52 to 7.00; for `CC(=O)N1CCN(CCc2cc(F)c(CN3Cc4ccccc4C3)n(C)c2=O)CC1` [compound 119]: 6.52 to 7.00; for `Cn1c(CN2Cc3ccccc3C2)ccc(CCC2CCN(S(C)(=O)=O)CC2)c1=O` [compound 90]: more than 7.00.
Still for that read-out and setting: the same measure for `COc1cc(CN2Cc3ccccc3C2)ccc1COC1CCN(S(C)(=O)=O)CC1` [compound 42]: less than 6.52; for `Cn1c(CN2Cc3ccccc3C2)c(F)cc(-c2ccc3c(c2)CCN(S(C)(=O)=O)C3)c1=O` [compound 120]: more than 7.00; for `CS(=O)(=O)N1CCC(CCOc2cc(CN3Cc4ccccc4C3)ccn2)CC1` [compound 6]: less than 6.52.
The same measure, in the same setting: then `CC(=O)N1CCC(CCSc2ccc(CN3Cc4ccccc4C3)cc2F)CC1` [compound 49], with more than 7.00; and `COc1cc(CN2Cc3ccccc3C2)ccc1CCC1CCN(S(=O)(=O)c2cccs2)CC1` [compound 78], with more than 7.00; and `COc1cc(CN2Cc3ccccc3C2)ccc1/C=C/C1CCN(S(C)(=O)=O)CC1` [compound 44], with more than 7.00.
Take `C=CS(=O)(=O)N1CCC(CCc2ccc(CN3Cc4ccccc4C3)cc2OC)CC1` [compound 82]: the pIC50 at CYP11A1 was 6.52 to 7.00.
On the same count and under the same terms, then `CC1CC(CCc2cc(F)c(CN3Cc4ccccc4C3)n(C)c2=O)CCN1S(C)(=O)=O` (stereo not drawn) [compound 109], with more than 7.00.
Still for that read-out and setting: the same measure for `Cn1c(CN2Cc3ccccc3C2)c(F)cc(C=CC2CCN(C(=O)OC(C)(C)C)CC2)c1=O` [compound 103]: 6.52 to 7.00.
Consider `COc1cc(CN2Cc3ccncc3C2)ccc1CCC1CCN(S(C)(=O)=O)CC1` [compound 63], for which the pIC50 at CYP11A1 was more than 7.00.
On to `CS(=O)(=O)N1CCC(CCc2ccc(CN3Cc4ccccc4C3)cc2F)CC1` [compound 40], for which the pIC50 on CYP11A1 is more than 7.00.
Take `Cn1c(CN2Cc3ccccc3C2)c(F)cc(C=CC2CCN(S(C)(=O)=O)CC2)c1=O` [compound 113]: in data set [1], the AUC (commonly concentration integrated over time) was more than 1700 ng·h/mL and the Cmax (usually the peak of the concentration-time curve) was more than 1000 ng/mL. For the same molecule, the bioavailability (commonly the share of a dose that reaches the circulation, judged against a reference dose that is usually intravenous) in data set [1] (read-out: bioavailability (F)) was more than 60%.
For the molecule `[2H]C([2H])(c1c(F)cc(CCC2CCN(C(=O)OC(C)(C)C)CC2)c(=O)n1C)N1Cc2ccccc2C1` [compound 121], the pIC50 at CYP11A1 was more than 7.00.
The same measure, in the same setting: the same measure for `COc1cc(CN2Cc3ccccc3C2)ccc1CCC1(O)CCN(S(C)(=O)=O)CC1` [compound 92]: 6.52 to 7.00.
The same measure, in the same setting: the same measure for `Cn1c(CN2Cc3ccc(F)cc3C2)c(F)cc(CCC2CCN(S(C)(=O)=O)CC2)c1=O` [compound 101]: less than 6.52.
